Laboratory results: patent publication US10974036B2, “Implantable device for long-term delivery of drugs” (Delpor, Inc., priority 2009, dated 2021)
Values after ≈ are worked out from the molar mass of the structure shown. Values joined by “and” are separate entries in the source; they are usually repeats but may differ in a detail not shown here. Equal entries are not always repeated. Where two headings read alike, the source gives them in different places.

Columns and labels:
[1] = cited from earlier work
in vivo = conditions: human, plasma, iv
[2] = cited from earlier work; remark: listed apart in the source
[3] = In vitro release of risperidone, Franz-type diffusion cells with different porous partitions (Example 1); assay type: physicochemical; conditions: after 3-4 day equilibration phase, suspension with PLGA, room temperature
Description: As described in Example 1, typical Franz-type diffusion cells were fitted with a porous partition separating a donor chamber from a receptor chamber. The partitions were selected to span a wide range of pore sizes (i.e., molecular weight cut-off or “MWCO”, values or nominal pose diameter) The porous partitions selected for use in this study had molecular weight cut-off values of 100,000 Daltons and 3,000 Daltons. In addition, a porous partition in the form of a […] polyvinyldenefluoride membrane filter (Durapore®) was used.
Sustained, substantially zero-order release rate was obtained, as best seen in FIG. 7B.
Typical Franz-type diffusion cells were fitted with porous partitions separating a donor chamber from a receptor chamber. The porous partitions were membranes with pore sizes of 3,000 Daltons molecular weight cut-off, 100,000 Daltons molecular weight cut-off and a 0.45 micron polyvinyldenefluoride membrane filter (Durapore®). […] The cells were maintained at room temperature. […] Buffer was replaced each day.

[4] = In vivo plasma concentration after subcutaneous implantation of devices in rats (Example 5, FIG. 12B); conditions: subcutaneous device containing risperidone only, first week
Protocol: For in vivo experiments, rats were anesthetized and devices placed subcutaneously in the dorsum, lateral to the midline, using a trocar. Whole blood samples were obtained by tail vein venous puncture. Plasma was immediately separated from formed elements by centrifugation. […] The lower limit of quantitation was 0.10 ng/mL.

[5] = 100 mg risperidone, PBS pH 7.4, 37° C.
Protocol: Two groups of drug delivery devices were assembled as follows. Cylindrical titanium tubes, 4 mm in diameter and 35 mm in length, were prepared. […] The reservoirs of the devices were filled with phosphate buffered saline (PBS) at pH 7.4 under reduced pressure. Each of the devices in Group B was fitted with two regenerated cellulose membranes (5000 Daltons molecular weight cut off) at each end of the cylindrical tube by sandwiching the membrane between an o-ring and titanium frit (5 micron pores), as illustrated in FIGS. 5A-5B. The devices in Group A were identical, except the cellulose membrane was omitted, as illustrated in FIGS. 4A-4B. The devices were then placed individually in tubes containing approximately 1 mL PBS. The tubes were placed on a rotating rack (1 revolution per hour) at 37° C.
Buffer was diluted to 20-50 micrograms/mL prior to measurement to insure that the concentration was within the linear range of the UV measurement. Buffer was replaced each day.

[6] = PBS, 37° C.
Protocol: In yet another study, devices were prepared as described herein an tested in vitro and in vivo.
Two groups of devices (n=6) were prepared. The main body of each device consisted of a cylindrical titanium tube, definining an internal reservoir. The tubes were 35 mm in length, with an outer diameter (OD) of 4.3 mm and an inner diameter (ID) of about 3 mm (Peridot Manufacturing, Pleasanton, Calif.). Both ends of each tube were tapered (lathed) so as to accept a press cap which served to retain a porous partition, as illustrated in FIGS. 4-5. The first group of devices was fitted on one end with a titanium sintered frit having a diameter 3.5 mm, a depth 0.5 mm, and a 5 micron nominal particle retention size (Applied Porous Materials, Farmington, Conn.). The frit was secured in each tube by placing the tube horizontally in a holder, and then positioning over the open end, in sequence, the frit, an o-ring and the press cap.
A 2.5 mm stainless steel ball was placed in the reservoir to provide mixing. A second frit was sealed to the remaining open end of the reservoir using the same procedure as described above for the other end. […]
Both groups of devices were equally split, each subgroup of 3 devices destined for either in vitro or in vivo testing. In vitro release rate was determined by submerging the devices in 1 mL PBS held in screw cap cryo-vials. […]

Compound	Half-life ([1]; in vivo) [h]	Target Steady state plasma conc ([1]; in vivo) [ng/mL]	CL(L/hr) (iv) [1]	clearance (in vivo) [mL/min]	Water solubility (mg/mL) acidic pH ([2]; acidic pH) [mg/mL]	Water solubility (mg/mL) neutral pH [2] [mg/mL]	Bioavailability oral [1] [%]	further results
O=C1CCc2ccc(OCCCCN3CCN(c4cccc(Cl)c4Cl)CC3)cc2N1 [Aripiprazole, aripiprazole]	3	100	2.37 L/h	39.6	–	–	–	–
CN1CC2c3ccccc3Oc3ccc(Cl)cc3C2C1 (stereo not shown) [Asenapine, asenapine]	24	2.1	52 L/h	867	13	3.0	< 2	solubility ([2]; in 0.1N HCl): 13000 µg/mL (≈ 45.5 mM); water solubility ([2]; pH 7-7.4): 3000 µg/mL (≈ 10.5 mM); water solubility ([2]; pH 7.0): 3000 µg/mL (≈ 10.5 mM); plasma clearance ([1]; in vivo): 52 L/h; Bioavailability sublingual ([1]; sublingual): 30%
O=C(CCCN1CCC(O)(c2ccc(Cl)cc2)CC1)c1ccc(F)cc1 [Haloperidol, haloperidol]	29	2	42 L/h and 22 L/h	667	4.2	0.025	65	–
Cc1cc2c(s1)Nc1ccccc1N=C2N1CCN(C)CC1 [Olanzapine, olanzapine]	–	30	–	–	–	–	60	–
Cc1nc2n(c(=O)c1CCN1CCC(c3noc4cc(F)ccc34)CC1)CCCC2O (stereo not shown) [Paliperidone, paliperidone]	24	–	–	–	–	0.54	–	Water solubility acidic pH relative to neutral pH ([2]; acidic pH): 100 x neutral
Cc1nc2n(c(=O)c1CCN1CCC(c3noc4cc(F)ccc34)CC1)CCCC2 [Risperidone, risperidone]	–	20	–	–	–	–	–	release rate of risperidone ([3]; 0.45 polyvinyldenefluoride membrane filter (Durapore)): 70 µg/day; release rate of risperidone ([3]; porous partition 3,000 Dalton molecular weight cut-off): 100 µg/day; release rate of risperidone ([3]; porous partition 100,000 Dalton molecular weight cut-off): 200 µg/day; plasma levels of risperidone (plus 9-hydroxyrisperidone) [4]: barely detectable; release rate (5 mg 85:15 PLGA in suspension (FIG. 9)): 0.25 mg/day; release rate (10 mg 85:15 PLGA in suspension (FIG. 9)): 0.43 mg/day; release rate (15 mg 85:15 PLGA in suspension (FIG. 9)): 0.64 mg/day; average release rate ([5]; devices with 5 mg 50:50 PLGA and 15 mg 85:15 PLGA (Group B)): 1 to 1.2 mg/day; release rate ([5]; devices without PLGA (Group A)): less than 0.05 mg/day; in vitro release rate ([6]; devices with PLGA (15 mg 50:50 and 50 mg 85:15), maintained for 30 days): above 0.4 mg/day; in vitro release rate ([6]; devices without PLGA, throughout 30 days): less than 0.05 mg/day
